Test results: ChEMBL document CHEMBL3627615, “Discovery of the disubstituted oxazole analogues as a novel class anti-tuberculotic agents against MDR- and XDR-MTB” (Bioorg Med Chem Lett, 2015)
Values after ≈ are worked out from the molar mass of the structure shown.

Key:
[1] = tested on: Mycobacterium tuberculosis; assay: Antimycobacterial activity against extensively drug-resistant Mycobacterium tuberculosis FJ05195 after 3 to 4 weeks by microplate alamar blue assay; type: functional
[2] = tested on: Mycobacterium tuberculosis; assay: Antimycobacterial activity against multidrug-resistant Mycobacterium tuberculosis FJ05120 after 3 to 4 weeks by microplate alamar blue assay; type: functional

Row | Compound | MIC90 [1] | MIC90 [2]
1 | CC(C)(C)c1ccc(-c2nc(CN3CCC(C(=O)c4ccc5c(c4)CCCC5)CC3)co2)cc1 | 4 µg/mL (≈ 8.76 µM) | 4 µg/mL (≈ 8.76 µM)
2 | Cc1ccc(-c2nc(CN3CCC(C(=O)c4ccc5c(c4)OCCO5)CC3)co2)cc1 | 64 µg/mL (≈ 153 µM) | 64 µg/mL (≈ 153 µM)
3 | O=C(c1ccc2c(c1)OCCO2)C1CCN(Cc2csc(-c3ccc(Cl)cc3)n2)CC1 | > 128 µg/mL | > 128 µg/mL
4 | O=C(c1ccc2c(c1)OCCO2)C1CCN(Cc2coc(-c3cccnc3)n2)CC1 | 32 µg/mL (≈ 78.9 µM) | 32 µg/mL (≈ 78.9 µM)
5 | CN[C@@H]1[C@H](O[C@H]2[C@H](O[C@H]3[C@H](O)[C@@H](O)[C@H](N=C(N)N)[C@@H](O)[C@@H]3N=C(N)N)O[C@@H](C)[C@]2(O)C=O)O[C@@H](CO)[C@H](O)[C@H]1O [STREPTOMYCIN] | 64 µg/mL (≈ 110 µM) | < 0.5 µg/mL
6 | O=C(c1ccc(F)c(F)c1)C1CCN(Cc2coc(-c3ccc(F)cc3)n2)CC1 | 8 µg/mL (≈ 20 µM) | 8 µg/mL (≈ 20 µM)
7 | O=C(c1ccc2c(c1)OCCO2)C1CCN(Cc2coc(-c3ccccc3F)n2)CC1 | 8 µg/mL (≈ 18.9 µM) | 16 µg/mL (≈ 37.9 µM)
8 | COc1ccc(-c2nc(CN3CCC(C(=O)c4ccc5c(c4)OCCO5)CC3)co2)cc1 | 4 µg/mL (≈ 9.21 µM) | 8 µg/mL (≈ 18.4 µM)
9 | O=C(c1ccc2c(c1)OCCO2)C1CCN(Cc2coc(-c3cccc(F)c3)n2)CC1 | 8 µg/mL (≈ 18.9 µM) | 16 µg/mL (≈ 37.9 µM)
10 | O=C(c1ccc2c(c1)OCCO2)C1CCN(Cc2coc(-c3ccc(Cl)cc3)n2)CC1 | 4 µg/mL (≈ 9.11 µM) | 8 µg/mL (≈ 18.2 µM)
11 | O=C(c1ccc2c(c1)OCCO2)C1CCN(Cc2coc(-c3ccc(F)c(F)c3)n2)CC1 | 8 µg/mL (≈ 18.2 µM) | 8 µg/mL (≈ 18.2 µM)
12 | Cc1ccc(C(=O)C2CCN(Cc3coc(-c4ccc(F)cc4)n3)CC2)cc1C | 8 µg/mL (≈ 20.4 µM) | 8 µg/mL (≈ 20.4 µM)
13 | NNC(=O)c1ccncc1 [ISONIAZID] | 4 µg/mL (≈ 29.2 µM) | 1 µg/mL (≈ 7.29 µM)
14 | COc1ccc(C(=O)C2CCN(Cc3coc(-c4ccc(F)cc4)n3)CC2)cc1 | 8 µg/mL (≈ 20.3 µM) | 8 µg/mL (≈ 20.3 µM)
15 | O=C(c1ccc2c(c1)OCCO2)C1CCN(Cc2coc(-c3ccoc3)n2)CC1 | 64 µg/mL (≈ 162 µM) | 32 µg/mL (≈ 81.1 µM)
16 | O=C(c1ccccc1)C1CCN(Cc2coc(-c3ccc(F)cc3)n2)CC1 | 4 µg/mL (≈ 11 µM) | 4 µg/mL (≈ 11 µM)
17 | O=C(c1ccc2c(c1)CCCC2)C1CCN(Cc2coc(-c3ccc(F)cc3)n2)CC1 | 4 µg/mL (≈ 9.56 µM) | 4 µg/mL (≈ 9.56 µM)
18 | O=C(c1ccc2c(c1)OCCO2)C1CCN(Cc2coc(-c3ccc(F)cc3)n2)CC1 | 8 µg/mL (≈ 18.9 µM) | 8 µg/mL (≈ 18.9 µM)
19 | O=C(c1ccc2c(c1)OCCO2)C1CCN(Cc2coc(-c3ccc(C(F)(F)F)cc3)n2)CC1 | 64 µg/mL (≈ 135 µM) | 64 µg/mL (≈ 135 µM)
20 | O=C(c1ccc2c(c1)OCCO2)C1CCN(Cc2coc(-c3ccccc3)n2)CC1 | 8 µg/mL (≈ 19.8 µM) | 8 µg/mL (≈ 19.8 µM)
21 | CO[C@H]1/C=C/O[C@@]2(C)Oc3c(C)c(O)c4c(O)c(c(/C=N/N5CCN(C)CC5)c(O)c4c3C2=O)NC(=O)/C(C)=C\C=C\[C@H](C)[C@H](O)[C@@H](C)[C@@H](O)[C@@H](C)[C@H](OC(C)=O)[C@@H]1C [RIFAMPIN] | > 256 µg/mL | > 256 µg/mL
22 | COc1ccc(C(=O)C2CCN(Cc3coc(-c4ccc(F)cc4)n3)CC2)cc1OC | 16 µg/mL (≈ 37.7 µM) | 16 µg/mL (≈ 37.7 µM)
23 | CC(C)(C)c1ccc(-c2nc(CN3CCC(C(=O)c4ccc5c(c4)OCCO5)CC3)co2)cc1 | 1 µg/mL (≈ 2.17 µM) | 2 µg/mL (≈ 4.34 µM)
24 | CC(C)(C)c1ccc(-c2nc(CN3CCC(C(=O)c4ccc5c(c4)OCCO5)CC3)cs2)cc1 | > 128 µg/mL | > 128 µg/mL
25 | O=C(c1ccc2c(c1)OCCO2)C1CCN(Cc2cc(-c3ccc(F)cc3)on2)CC1 | > 128 µg/mL | > 128 µg/mL
26 | O=C(c1ccc2c(c1)OCCO2)C1CCN(Cc2coc(-c3ccco3)n2)CC1 | 32 µg/mL (≈ 81.1 µM) | 32 µg/mL (≈ 81.1 µM)
27 | O=C(c1ccc2c(c1)OCCO2)C1CCN(Cc2coc(-c3ccc(Br)cc3)n2)CC1 | 8 µg/mL (≈ 16.6 µM) | 8 µg/mL (≈ 16.6 µM)
28 | CC[C@@H](CO)NCCN[C@@H](CC)CO [ETHAMBUTOL] | 8 µg/mL (≈ 39.2 µM) | 1 µg/mL (≈ 4.89 µM)
29 | Cc1ccc(C(=O)C2CCN(Cc3coc(-c4ccc(F)cc4)n3)CC2)cc1 | 8 µg/mL (≈ 21.1 µM) | 16 µg/mL (≈ 42.3 µM)
